Source: ChEMBL document CHEMBL3507680, “University of Dundee, Gates Library screen for HepG2 cell viability”

assay: Human HepG2 cell viability assay in 384 well format; type: toxicity, cell-based; set-up: dose 125 nL, time 70.5 hour; concentration not given beside the values; conditions: HepG2 cells, read-out: Inhibition

Row | Compound | cytotoxicity at 70.5 h [%]
1 | O=c1cc(-c2ccncc2)nc(-c2ccc(CN3CC[C@H](O)C3)cc2)[nH]1 | -6.15
2 | CN(Cc1ccccc1)CC(C)(C)NC(=O)c1cnns1 | -0.0616
3 | Cc1ccc(CC(=O)N2CCN(CC(O)c3ccccc3)CC2)cn1 (configuration not stated) | 1.06
4 | Cc1cccc(C2CCCN(C(=O)c3ccncc3)C2)n1 (configuration not stated) | -7.3
5 | CCc1ccc(-c2cn3c(C(=O)N[C@H](C(N)=O)[C@@H](C)O)csc3n2)cc1 | 15.1
6 | CN1C(=O)C2(CCCN(C(=O)c3ccc(=O)n(C)n3)C2)c2ccccc21 (configuration not stated) | 0.808
7 | C[C@@H]1CN(C(=O)c2nc3sccn3c2-c2ncc[nH]2)C[C@H](C)O1 | -7.22
8 | c1ccc(-c2nnc3sc(CCN4CCCC4)nn23)cc1 | -5.25
9 | CCN(CC)C(=O)[C@@H]1C[C@@H](N)CN1C(=O)c1cc2c([nH]c1=O)CCC2 | -10.8
10 | COc1cccc(N2CCN(CCC(=O)NC3CCCC3)CC2)c1 | -5.97
11 | CC(C)(C)NC(=O)CN1CCNCC1 | 6.83
12 | CNC(=O)c1c(C)cccc1NCc1nnc(C2CC2)o1 | -2.15
13 | CNC(=O)c1ccc(OC)c(NCc2noc(-c3cccs3)n2)c1 | -16.8
14 | CC(C)n1ccc(C(=O)OCC2CC(=O)N(Cc3ccccc3)C2)n1 (configuration not stated) | -8.67
15 | CCC1CN(C(=O)NCCOc2ccc3c(c2)OCO3)CCO1 (configuration not stated) | -19.8
16 | Cc1ccc(NC(=O)c2n[nH]c(-n3cnnc3)n2)cc1 | -8.15
17 | Cc1cc(C(=O)N2CCc3c(ncnc3N3CCOCC3)C2)[nH]n1 | -1.64
18 | CCNc1cc2c(nn1)CCN(C(=O)c1ccnc(-n3ccnc3)c1)C2 | -6.16
19 | CN(C)C(=O)c1cccc(CN2CCN(CC(O)C(C)(C)C)CC2)c1 (configuration not stated) | -11.5
20 | CC(Sc1nnnn1C1CCOCC1)C(F)(F)F (configuration not stated) | -7.71
21 | CN1CCC/C1=N\S(=O)(=O)c1ccc(NC(=O)c2cccs2)cc1 | -2.28
22 | O=S(=O)(NC1=NCN(CCc2cccs2)CN1)c1ccc(Cl)cc1 | -14.8
23 | Cc1ncc(S(=O)(=O)Nc2ccnn2C(C)C)[nH]1 | 3.96

Row | Compound | cytotoxicity at 70.5 h [%]
24 | Oc1nc(C2CCN(Cc3ccccn3)CC2)cc2ccccc12 | 32.3
25 | COCC(=O)N1CCC(c2cc3ncccc3c(O)n2)CC1 | -7.25
26 | Cc1csc(N2CCN(Cc3cnc(C)s3)CC2C)n1 (configuration not stated) | -2.09
27 | O=S(=O)(C1CC1)N1CCC2(CC1)CN(Cc1ccccn1)CCO2 | 14.8
28 | O=C(c1ccc(F)cc1)N1CCC2(CCCN2CC2CC2)CC1 | -14
29 | CSCC(C)C(=O)NCc1c(C)nc2cc(=O)[nH]n2c1C (configuration not stated) | 7.35
30 | CC(C)NC(=O)CC1COC2(CCN(Cc3cccs3)CC2)C1 (configuration not stated) | -20.6
31 | CCN(CC)C(=O)c1cnc(Sc2nccn2C)c(Cl)c1 | -3.32
32 | Cc1ccc(C(=O)NCc2ccc(N3CCNC(=O)C3)c(F)c2)cc1 | -0.234
33 | c1cncc(CN2CCc3c(nnn3CC3CC3)C2COCC2CC2)c1 (configuration not stated) | -14.9
34 | NCC(=O)N1CCCC(O)(CN2CCN(c3ccccc3)CC2)CC1 (configuration not stated) | 4.71
35 | CC(C)(C)c1cnc(CN2CCCS(=O)(=O)CC2)o1 | -1.34
36 | CCn1ncnc1C(NC(=O)CC1CCN(C(C)C)CC1)C1CC1 (configuration not stated) | 13.7
37 | CN(Cc1n[nH]c2c1CCCCC2)C(=O)c1cc(-c2cccn2C)n[nH]1 | -5.14
38 | COc1ccc(CNCCc2cc(F)cc3c2OCOC3)c(OC)c1 | 25.5
39 | CCCc1nc(NCCc2ccccc2)c2c(n1)c(C)nn2CC | -16.2
40 | Cn1cc(N2CCCC(Nc3ccc4c(c3)NC(=O)CC4)C2=O)cn1 (configuration not stated) | -1.14
41 | COCC1c2c(cnn2CC2CC2)CCN1Cc1ccc(C)o1 (configuration not stated) | -8.01
42 | Cc1ccoc1CNCc1nnc2n1CC(C(F)(F)F)CC2 (configuration not stated) | -12.1
43 | Cc1cccc(-n2c(C)cc(C(=O)NS(C)(=O)=O)c2C)c1 | -14.6
44 | Cc1ccc(C(=O)N(C)Cc2ccc(Br)o2)c(=O)[nH]1 | -2.83
45 | CCC(CN1CCCC1)NC(=O)C1(c2cccc(F)c2)CC1 (configuration not stated) | -6.19
46 | CCc1oc(C(=O)NCCNS(C)(=O)=O)cc1CN1CCCC1 | 11.7

Row | Compound | cytotoxicity at 70.5 h [%]
47 | CC(=O)N(C)C(c1cccc(F)c1)c1ccccn1 (configuration not stated) | 8.62
48 | Cc1cccc(N(CCC(N)=O)CC(=O)Nc2cc(Cl)ccc2Cl)c1 | -5.69
49 | Cc1ccc(C(=O)NS(=O)(=O)c2cc(F)ccc2F)c(=O)[nH]1 | -13.1
50 | c1ccc2sc(CN3CCCC3c3noc(C4CC4)n3)nc2c1 (configuration not stated) | 4.52
51 | Cc1ccc(C(=O)NCC(C)Cn2ccnc2C)c(=O)[nH]1 (configuration not stated) | 0.288
52 | Cc1ccc(N2CCCC(NCc3ccc4c(c3)OCCO4)C2)nn1 (configuration not stated) | 1.38
53 | Cc1nccn1CCCC(=O)N1CCC2(CCC(=O)N(C(C)C)C2)CC1 | -4.22
54 | O=C1N(CC2CC2)CCC12CCN(CC1CC1)CC2 | -6.9
55 | CC(C)CNC(=O)CNC(=O)c1nc(Cc2c(Cl)cccc2Cl)no1 | -9.72
56 | Cc1cccc(CN2CCC3(CC2)CC(c2cccnc2)C(=O)N3C)n1 (configuration not stated) | 15.6
57 | Cc1cnn(CC2CCCN2c2ncnc3ccsc23)c1 (configuration not stated) | 5.5
58 | CCc1nccn1C1CCCN(C(=O)c2ccc(C(N)=O)cn2)C1 (configuration not stated) | -9.53
59 | CN1CCC(n2nc(Cc3cccc(Cl)c3)nc2Cn2ccnc2)CC1 | -8.49
60 | CC(C)n1ncc2c1NC(=O)CC21C(=O)Nc2c(Cl)cc(Cl)cc21 (configuration not stated) | -8.73
61 | O=C(C1CCCC1)N1C[C@H]2CNC[C@H]2C1 | -8.49
62 | O=C(CN1CCCCC1Cn1cccn1)NC1CCN(C2CC2)CC1 (configuration not stated) | -7.07
63 | CN1CCc2[nH]nc(C(=O)N3CCCC4(CC3)CNC(=O)O4)c2C1 (configuration not stated) | -3.37
64 | CCN1CCCC(C)(C(=O)NCCCc2nc(C)cs2)C1 (configuration not stated) | -10.4
65 | O=C(NC1CC(=O)N(C2Cc3ccccc3C2)C1)c1ccsc1 (configuration not stated) | -3.74
66 | Cn1cnc2c1C(COCC1CCOCC1)CN(c1ncccn1)C2 (configuration not stated) | -11.3
67 | CCN(CC)CCNC(=O)CCc1c(C)nn(-c2ccccc2Cl)c1C | 16.4
68 | O=C(CCc1cccnc1)N1CCCCC1c1ccn2ccnc2n1 (configuration not stated) | -6.74
69 | CN(Cc1ccccc1OC(F)(F)F)C(=O)C1CC1 | -7.05

Row | Compound | cytotoxicity at 70.5 h [%]
70 | COCC1c2nnn(CC3CC3)c2CCN1C(=O)Cc1cccs1 (configuration not stated) | -8.15
71 | CN(C(=O)Cn1nc(-c2ccc(Br)cc2)ccc1=O)C1CCS(=O)(=O)C1 (configuration not stated) | -22.4
72 | CCCOCC(=O)NS(=O)(=O)c1ccc2c(c1)OCCO2 | -0.678
73 | CCc1ccc(C(=O)Nc2cc(N3CCNC3=O)ccc2Cl)o1 | -5.46
74 | Cc1cc(C)n(-c2ccnc(N3CCC(C(=O)N4CCCC4)CC3)n2)n1 | -4.06
75 | Cc1ccc(S(=O)(=O)NCCc2ccoc2)s1 | -9.94
76 | Nc1nc2c(c(NCC(c3cccnc3)N3CCOCC3)n1)CCNC2 (configuration not stated) | -10.5
77 | CCn1c(C)nnc1CN(C)C1CCN(Cc2c(C)noc2C)C1 (configuration not stated) | -4.05
78 | CN(Cc1ccccc1)CC1CC2(CO1)CN(c1nncs1)C2 (configuration not stated) | -8.78
79 | Cn1cc(I)c(C(=O)NC2CCCCC2)n1 | 28.2
80 | COC[C@]1(O)CCN(C2CCN(c3ccc(Cl)cc3)CC2)CC1(C)C | 22.5
81 | CCN(CC)CCNC(=O)c1cc(OC)c2ccoc2c1 | -5.95
82 | CCn1ccnc1CN1CCN(CCCS(C)(=O)=O)CC1C (configuration not stated) | 12.1
83 | COc1cccc(Cl)c1C(C(=O)O)N(C)Cc1nnc(C)o1 (configuration not stated) | 11.6
84 | Cc1cc(C)n(CC2CCCN2Cc2ncc(C(C)(C)C)o2)n1 (configuration not stated) | -5.22
85 | Cc1nc(CN2CCN(C(=O)COc3c(C)ccc(C)c3C)CC2)no1 | -4.73
86 | O=C(NC1CCCC1)c1ccc(C2CCCNC2)nc1 (configuration not stated) | 9.52
87 | Cc1nc2ccc(S(=O)(=O)Nc3c(C)nn(CC(=O)O)c3C)cc2s1 | -10.8
88 | Cn1ccnc1CN1CCN(Cc2ccc(C#N)cc2)CC1 | -2.96
89 | COCc1nc(N(C)C)ncc1C(=O)Nc1ccc(Cl)cc1 | -11.1
90 | O=S(=O)(c1cccc(F)c1)N1CC[C@H]2[C@H]1CCN2c1ncccn1 | 1.7
91 | CC[C@H](C)[C@H](NC(=O)Cn1ccc2ccc(F)cc21)C(=O)OC | -1.27
92 | CC(CNC(=O)c1cc(-n2cccn2)ccn1)Cn1ccnc1 (configuration not stated) | -0.0471

Row | Compound | cytotoxicity at 70.5 h [%]
93 | CC(C(=O)NCCOc1ccc2c(c1)OCO2)n1cncn1 (configuration not stated) | -13.4
94 | CCc1ccc(CCn2cnc(C#N)n2)cc1 | -7.83
95 | CC(NC(=O)Nc1ccc(OC2CCCC2)cc1)c1nc[nH]n1 (configuration not stated) | 12.8
96 | C=C(C)CN(c1cn[nH]c1)S(=O)(=O)c1cccc(C#N)c1 | -5.38
97 | CC(C)N1CCc2nnc(COc3cncnc3)n2CC1 | -9.44
98 | Cn1ccnc1-c1ccccc1C(=O)N1CCc2c(nc(N)[nH]c2=O)C1 | -11.8
99 | COCC(=O)N1CC[C@@H](N2CCOCC2)[C@@H]1Cc1cccnc1 | -12.2
100 | NC(=O)C1(CCCc2ccccn2)CCCN(Cc2ccncc2)C1 (configuration not stated) | -2.02
101 | Cc1cc(CN(C)C(=O)C2CC(c3cccc(F)c3)=NO2)no1 (configuration not stated) | -10.1
102 | CCc1nc(C)cc(N2CCN(C(=O)[C@@H]3C[C@@H]4C=C[C@H]3C4)CC2)n1 | -7.28
103 | CC(NCc1cccc(S(=O)(=O)N(C)C)c1)c1ccccn1 (configuration not stated) | -6.92
104 | Nc1cc(C(=O)NCC2CCN(Cc3cccc(O)c3)C2)ccn1 (configuration not stated) | 18.3
105 | COc1cccc(CC(=O)N2CC[C@@H]3[C@H](CC2)N(C)CCS3(=O)=O)c1 | -2.21
106 | CCC(=O)Nc1cccc(OCC(=O)N(C)Cc2nc(C)c[nH]2)c1 | -4.8
107 | CC(NC(=O)NC1CCN(Cc2ccncc2)CC1)c1cccc(F)c1 (configuration not stated) | -6.53
108 | Cn1cc(Br)cc(NC(=O)Cc2cccs2)c1=O | 17.9
109 | O=C(c1cccnc1)N1CCN(c2ccc(-n3cccc3)nn2)CC1 | 0.575
110 | COc1ccc(CNCCn2c(C)nc3ccccc32)cc1O | -8.82
111 | N[C@@H]1c2ccccc2C2(CCN(c3cc(C(F)(F)F)ccn3)CC2)[C@H]1O | 39.4
112 | CC(C)(C)CC(=O)N1CSCC1C(=O)NCc1cccc(C#N)c1 (configuration not stated) | 15.4
